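All cell lines were grown in 96-well plates and treated with compound for 48 hours. GI50 is the concentration that inhibits growth by half.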 Activity calls are given as the source filed them. Cut-off read from the data, not from the text of the source: active = GI50 up to about 1.1 µM and inactive = higher.
Experiments:
Assay in all cases: NCI anticancer screen, dose series, 48 h
[1] = tested on: BT-549
[2] = tested on: KM12
[3] = tested on: LOX IMVI
[4] = tested on: M14
[5] = tested on: MCF7
[6] = tested on: MDA-MB-435
[7] = tested on: MOLT-4
[8] = tested on: Malme-3M
[9] = tested on: NCI-H226
[10] = tested on: NCI/ADR-RES
[11] = tested on: OVCAR-5
[12] = tested on: RPMI-8226
[13] = tested on: SK-MEL-2
[14] = tested on: SK-OV-3
[15] = tested on: SNB-75
[16] = tested on: U-251
[17] = tested on: UACC-257
[18] = tested on: UACC-62
[19] = tested on: A498
[20] = tested on: MDA-MB-231

Measured: GI50

CC(C)OP(=O)(OC(C)C)C(C(F)(F)F)C(F)(F)F
inactive: [1] > 100 µM | [2] > 100 µM | [3] > 100 µM | [4] > 100 µM | [5] > 100 µM | [6] > 100 µM | [7] > 100 µM | [8] > 100 µM | [9] > 100 µM | [10] > 100 µM | [11] > 100 µM | [12] > 100 µM | [13] > 100 µM | [14] > 100 µM | [15] > 100 µM | [16] > 100 µM | [17] > 100 µM | [18] > 100 µM

O=c1[nH]ncc2[nH]c3c(c12)CCCc1ccccc1-3
inactive: [19] 27.6 µM | [1] 32.9 µM | [2] 37.4 µM | [3] 44.3 µM | [4] 46.6 µM | [5] 29.4 µM | [6] 25.7 µM | [7] 17.5 µM | [8] 96.2 µM | [9] 38.7 µM | [10] 37.9 µM | [11] 43.4 µM | [12] 27.8 µM | [13] 34.9 µM | [14] 28.6 µM | [16] 38.6 µM | [17] 71.8 µM | [18] 23.7 µM

CC(=O)NC(C)(C)C1CC=C(C)/C(=N\O)C1 (stereo not drawn)
inactive: [1] > 100 µM | [2] > 100 µM | [3] > 100 µM | [4] > 100 µM | [5] > 100 µM | [20] > 100 µM | [6] > 100 µM | [7] > 100 µM | [11] > 100 µM | [14] > 100 µM | [15] > 100 µM | [16] > 100 µM | [17] > 100 µM | [18] > 100 µM

CCOC(=O)C(Cc1ccc2c(c1)CCC2)(Cc1ccc2c(c1)CCC2)C(=O)OCC
inactive: [19] > 100 µM | [3] 71.1 µM | [4] 96.2 µM | [5] 52.6 µM | [20] 47.1 µM | [6] 44.6 µM | [7] 23.6 µM | [8] 21.1 µM | [10] > 100 µM | [11] > 100 µM | [12] 55.7 µM | [13] 35.6 µM | [14] > 100 µM | [15] > 100 µM | [16] > 100 µM | [17] 34.7 µM

CCOC(=O)C(=CNC(=S)c1ccncc1)C(=O)OCC
inactive: [19] > 100 µM | [2] > 100 µM | [3] > 100 µM | [4] > 100 µM | [5] > 100 µM | [20] > 100 µM | [6] > 100 µM | [7] > 100 µM | [8] > 100 µM | [11] > 100 µM | [12] > 100 µM | [13] > 100 µM | [14] > 100 µM | [15] 25.6 µM | [16] > 100 µM | [17] > 100 µM | [18] > 100 µM

CC1OC(OC2C(CO)OC(O[C@H]3CC[C@@]4(C)C(=CC[C@H]5[C@@H]6C[C@@H]7O[C@](O)(CC[C@@H](C)COC8OC(CO)C(O)C(O)C8O)[C@@H](C)[C@@H]7[C@@]6(C)CC[C@@H]54)C3)C(OC3OC(C)C(O)C(O)C3O)C2O)C(O)C(O)C1O (stereo partly drawn)
inactive: [19] > 100 µM | [1] 3.88 µM | [2] 2.24 µM | [3] 1.56 µM | [4] 1.91 µM | [20] 6.11 µM | [6] 3.06 µM | [7] 1.58 µM | [8] 1.89 µM | [10] 2.06 µM | [11] 2.52 µM | [12] 2.34 µM | [13] 4.98 µM | [14] 2.84 µM | [15] 1.48 µM | [16] 1.87 µM | [17] 4.02 µM | [18] 2.52 µM

COc1ccc(NC(=O)CC(=O)N2N=C(N(c3ccccc3)c3ccccc3)CC2c2ccccc2)cc1 (stereo not drawn)
inactive: [19] > 100 µM | [2] > 100 µM | [3] > 100 µM | [4] > 100 µM | [5] > 100 µM | [20] > 100 µM | [6] > 100 µM | [7] > 100 µM | [9] > 100 µM | [10] > 100 µM | [11] > 100 µM | [12] > 100 µM | [13] > 100 µM | [14] > 100 µM | [15] > 100 µM | [16] > 100 µM | [17] > 100 µM | [18] > 100 µM

CC(=O)Nc1nnc(S(C)(=O)=O)s1
inactive: [19] > 100 µM | [1] > 100 µM | [2] > 100 µM | [4] > 100 µM | [5] > 100 µM | [6] > 100 µM | [7] > 100 µM | [8] > 100 µM | [9] > 100 µM | [10] > 100 µM | [11] > 100 µM | [12] > 100 µM | [16] > 100 µM | [17] > 100 µM
